Results: ChEMBL document CHEMBL1147189, “QSAR analysis for heterocyclic antifungals” (2007)
Converted amounts (≈) assume the structure as drawn.

System: Candida albicans
Test: Antifungal activity against Candida albicans by serial dilution method
Type: functional
Conditions: read-out: -Log MIC (converted)

Compound	MIC
Nc1ccc(-c2nc3ccccc3o2)cc1	119 µM (≈ 25 µg/mL)
c1ccc(CCc2nc3ccccc3[nH]2)cc1	83.6 µM (≈ 18.6 µg/mL)
Nc1ccc2oc(-c3ccc(F)cc3)nc2c1	110 µM (≈ 25 µg/mL)
O=[N+]([O-])c1ccc2[nH]c(CSc3ccccc3)nc2c1	43.9 µM (≈ 12.5 µg/mL)
Cc1ccc2[nH]c(CSc3ccccc3)nc2c1	97.9 µM (≈ 24.9 µg/mL)
Clc1ccc2oc(COc3ccccc3)nc2c1	45.3 µM (≈ 11.8 µg/mL)
Cc1ccc2nc(CSc3ccccc3)oc2c1	97.9 µM (≈ 25 µg/mL)
COC(=O)c1ccc2[nH]c(COc3ccccc3)nc2c1	88.5 µM (≈ 25 µg/mL)
O=[N+]([O-])c1ccc2[nH]c(COc3ccccc3)nc2c1	52.1 µM (≈ 14 µg/mL)
Clc1ccc2[nH]c(CSc3ccccc3)nc2c1	91 µM (≈ 25 µg/mL)
c1ccc(NCc2nc3ccccc3[nH]2)cc1	112 µM (≈ 25 µg/mL)
Clc1ccc(Cc2nc3ccccc3o2)cc1	51.3 µM (≈ 12.5 µg/mL)
O=[N+]([O-])c1ccc(Cc2nc3cc([N+](=O)[O-])ccc3o2)cc1	20.9 µM (≈ 6.25 µg/mL)
Clc1ccc2[nH]c(COc3ccccc3)nc2c1	48.3 µM (≈ 12.5 µg/mL)
Cc1ccc2[nH]c(CNc3ccccc3)nc2c1	105 µM (≈ 25 µg/mL)
CC(=O)Nc1ccc(-c2nc3cc(C)ccc3o2)cc1	94 µM (≈ 25 µg/mL)
COC(=O)c1ccc2[nH]c(CSc3ccccc3)nc2c1	83.9 µM (≈ 25 µg/mL)
O=[N+]([O-])c1ccc2oc(CCc3ccccc3)nc2c1	46.7 µM (≈ 12.5 µg/mL)
Nc1ccc(-c2nc3ncccc3o2)cc1	59.3 µM (≈ 12.5 µg/mL)
CC(C)(C)c1ccc(-c2nc3ccccc3o2)cc1	99.8 µM (≈ 25.1 µg/mL)
CC(=O)Nc1ccc(-c2nc3cc(Cl)ccc3o2)cc1	87.3 µM (≈ 25 µg/mL)
CCc1ccc(-c2nc3cc(Cl)ccc3o2)cc1	97.1 µM (≈ 25 µg/mL)
Cc1ccc2nc(COc3ccccc3)oc2c1	104 µM (≈ 25 µg/mL)
O=[N+]([O-])c1ccc2oc(COc3ccc(Cl)cc3)nc2c1	82 µM (≈ 25 µg/mL)

Compound	MIC
O=[N+]([O-])c1cc2oc(CSc3ccccc3)nc2cc1Cl	39 µM (≈ 12.5 µg/mL)
COC(=O)c1ccc2oc(CSc3ccccc3)nc2c1	41.8 µM (≈ 12.5 µg/mL)
Cc1ccc2oc(-c3ccc(N(C)C)cc3)nc2c1	99.1 µM (≈ 25 µg/mL)
Cc1ccc(-c2nc3ncccc3o2)cc1	59.6 µM (≈ 12.5 µg/mL)
Clc1ccc(-c2nc3cc(Cl)ccc3o2)cc1	94.6 µM (≈ 25 µg/mL)
O=[N+]([O-])c1ccc(-c2nc3cc(Cl)ccc3o2)cc1	91.2 µM (≈ 25 µg/mL)
Cc1ccc(-c2nc3cc([N+](=O)[O-])ccc3o2)cc1	49.2 µM (≈ 12.5 µg/mL)
CC(C)(C)c1ccc(-c2nc3cc([N+](=O)[O-])ccc3o2)cc1	42.2 µM (≈ 12.5 µg/mL)
CNc1ccc(-c2nc3cc(Cl)ccc3o2)cc1	94.4 µM (≈ 24.4 µg/mL)
O=[N+]([O-])c1cc2oc(COc3ccc(Cl)cc3)nc2cc1Cl	148 µM (≈ 50 µg/mL)
O=[N+]([O-])c1ccc2oc(CSc3ccccc3)nc2c1	43.8 µM (≈ 12.5 µg/mL)
Clc1ccc(OCc2nc3cc(Cl)ccc3o2)cc1	84.9 µM (≈ 25 µg/mL)
Clc1ccc(OCc2nc3ccccc3s2)cc1	181 µM (≈ 49.9 µg/mL)
COc1ccc(-c2nc3ncccc3o2)cc1	55.3 µM (≈ 12.5 µg/mL)
CCOc1ccc(-c2nc3ncccc3o2)cc1	52.1 µM (≈ 12.5 µg/mL)
O=[N+]([O-])c1ccc(Cc2nc3ccccc3o2)cc1	49.2 µM (≈ 12.5 µg/mL)
Clc1ccc2oc(Cc3ccccc3)nc2c1	51.3 µM (≈ 12.5 µg/mL)
Nc1ccc(-c2nc3cc([N+](=O)[O-])ccc3o2)cc1	49 µM (≈ 12.5 µg/mL)
c1ccc(Cc2nc3ccccc3o2)cc1	59.8 µM (≈ 12.5 µg/mL)
Cc1ccc2nc(COc3ccc(Cl)cc3)oc2c1	183 µM (≈ 50 µg/mL)
O=[N+]([O-])c1ccc(-c2nc3ncccc3o2)cc1	51.9 µM (≈ 12.5 µg/mL)
COc1ccc(Cc2nc3cc(Cl)ccc3o2)cc1	45.7 µM (≈ 12.5 µg/mL)
Clc1ccc2oc(Cc3ccc(Br)cc3)nc2c1	38.9 µM (≈ 12.6 µg/mL)
O=[N+]([O-])c1ccc2oc(Cc3ccc(Cl)cc3)nc2c1	21.7 µM (≈ 6.26 µg/mL)

Compound	MIC
CCc1ccc(-c2nc3cc(N)ccc3o2)cc1	105 µM (≈ 25 µg/mL)
CN(C)c1ccc(-c2nc3cc(N)ccc3o2)cc1	98.9 µM (≈ 25 µg/mL)
Cc1ccc(-c2nc3cc(C)ccc3o2)cc1	112 µM (≈ 25.1 µg/mL)
CCc1ccc(-c2nc3cc(C)ccc3o2)cc1	105 µM (≈ 25 µg/mL)
COc1ccc(-c2nc3cc(C)ccc3o2)cc1	105 µM (≈ 25.1 µg/mL)
Cc1ccc2oc(COc3ccccc3)nc2c1	105 µM (≈ 25.1 µg/mL)
c1ccc(OCc2nc3ncccc3o2)cc1	55 µM (≈ 12.4 µg/mL)
Clc1ccc(OCc2nc3ncccc3o2)cc1	48 µM (≈ 12.5 µg/mL)
c1ccc(CCc2nc3ncccc3o2)cc1	55.8 µM (≈ 12.5 µg/mL)
Clc1ccc(OCc2nc3ccccc3o2)cc1	96.4 µM (≈ 25 µg/mL)
O=[N+]([O-])c1ccc2nc(COc3ccc(Cl)cc3)oc2c1	164 µM (≈ 50 µg/mL)
c1ccc(SCc2nc3ccccc3[nH]2)cc1	52 µM (≈ 12.5 µg/mL)
Cc1ccc2[nH]c(CCc3ccccc3)nc2c1	52.8 µM (≈ 12.5 µg/mL)
Cc1ccc2oc(-c3ccc(F)cc3)nc2c1	110 µM (≈ 25 µg/mL)
Clc1ccc(OCc2nc3ccccc3[nH]2)cc1	96.6 µM (≈ 25 µg/mL)
CCc1ccc(-c2nc3ncccc3o2)cc1	55.8 µM (≈ 12.5 µg/mL)
O=[N+]([O-])c1ccc2oc(-c3ccccc3)nc2c1	52.2 µM (≈ 12.5 µg/mL)
COc1ccc(Cc2nc3ccccc3o2)cc1	52.2 µM (≈ 12.5 µg/mL)
O=[N+]([O-])c1ccc2oc(Cc3ccc(Br)cc3)nc2c1	18.8 µM (≈ 6.28 µg/mL)
O=[N+]([O-])c1ccc2oc(-c3ccc(Cl)cc3)nc2c1	45.5 µM (≈ 12.5 µg/mL)
Cc1ccc2oc(COc3ccc(Cl)cc3)nc2c1	183 µM (≈ 50 µg/mL)
Cc1ccc2[nH]c(COc3ccccc3)nc2c1	105 µM (≈ 25 µg/mL)
O=[N+]([O-])c1ccc2oc(-c3ccc(Br)cc3)nc2c1	39.3 µM (≈ 12.5 µg/mL)
O=[N+]([O-])c1ccc(Cc2nc3cc(Cl)ccc3o2)cc1	43.4 µM (≈ 12.5 µg/mL)

Compound	MIC
COc1ccc(Cc2nc3cc([N+](=O)[O-])ccc3o2)cc1	22 µM (≈ 6.26 µg/mL)
COC(=O)c1ccc2oc(COc3ccccc3)nc2c1	88.3 µM (≈ 25 µg/mL)
c1ccc(OCc2nc3ccccc3o2)cc1	111 µM (≈ 25 µg/mL)
O=[N+]([O-])c1ccc2oc(COc3ccccc3)nc2c1	92.5 µM (≈ 25 µg/mL)
O=[N+]([O-])c1ccc2nc(COc3ccccc3)oc2c1	185 µM (≈ 50.1 µg/mL)
O=[N+]([O-])c1ccc2nc(CSc3ccccc3)oc2c1	43.7 µM (≈ 12.5 µg/mL)
CNc1ccc(-c2nc3cc(C)ccc3o2)cc1	105 µM (≈ 25 µg/mL)
COC(=O)c1ccc2[nH]c(COc3ccc(Cl)cc3)nc2c1	79.1 µM (≈ 25 µg/mL)
Clc1ccc(OCc2nc3cc(Cl)ccc3[nH]2)cc1	42.7 µM (≈ 12.5 µg/mL)
Clc1ccc2[nH]c(CCc3ccccc3)nc2c1	97.3 µM (≈ 25 µg/mL)
CNc1ccc(-c2nc3ccccc3o2)cc1	112 µM (≈ 25 µg/mL)
Nc1ccc2oc(-c3ccc(Br)cc3)nc2c1	77.6 µM (≈ 22.4 µg/mL)
Cc1ccc2oc(CSc3ccccc3)nc2c1	97.9 µM (≈ 25 µg/mL)
Cc1ccc2[nH]c(COc3ccc(Cl)cc3)nc2c1	91.8 µM (≈ 25 µg/mL)
Brc1ccc(Cc2nc3ccccc3o2)cc1	43.7 µM (≈ 12.6 µg/mL)
O=[N+]([O-])c1cc2oc(COc3ccccc3)nc2cc1Cl	164 µM (≈ 50 µg/mL)
c1ccc(SCc2nc3ccccc3o2)cc1	51.8 µM (≈ 12.5 µg/mL)
c1ccc(OCc2nc3ccccc3[nH]2)cc1	111 µM (≈ 25 µg/mL)
COC(=O)c1ccc2oc(COc3ccc(Cl)cc3)nc2c1	78.7 µM (≈ 25 µg/mL)
O=[N+]([O-])c1ccc2oc(Cc3ccccc3)nc2c1	24.6 µM (≈ 6.26 µg/mL)
c1ccc(OCc2nc3ccccc3s2)cc1 [2-(PHENOXYMETHYL)BENZOTHIAZOLE]	207 µM (≈ 50 µg/mL)
c1ccc(SCc2nc3ccccc3s2)cc1 [2-(PHENYLTHIOMETHYL)BENZO[D]THIAZOLE]	97.1 µM (≈ 25 µg/mL)
c1ccc(-c2nc3ccccc3o2)cc1 [2-PHENYLBENZO[D]OXAZOLE]	128 µM (≈ 25 µg/mL)
